US4698352A, “4-oxo-1,4-dihydronicotinic acid derivatives, salts thereof, and antibacterial agents containing the same” (Toyama Chemical Co., Ltd., priority 1982, dated 1987)
Converted amounts (≈) assume the structure as drawn. Like-named read-outs stand apart in the source and are kept apart here.

Tests used:
Experiment in all cases: Antibacterial activity (MIC), agar dilution
Format in all cases: cell-based
[1] = test system: Ps. aeruginosa GN918**; details: Pseudomonas aeruginosa, Ps. aeruginosa GN918, cephalospolinase-producing, 10^6 cells per ml
Excerpt: (§1) The amount of bacteria inoculated was 10^4 cells per plate (10^6 cells per ml).
(§2) ** Cephalospolinase-producing bacteria

[2] = test system: Pro. vulgaris GN76**; details: Proteus vulgaris, 20 h; Pro. vulgaris GN76, cephalospolinase-producing; 10^6 cells per ml; read-out: MIC
Excerpt: as §1, §2

[3] = test system: E. coli GN5482**; details: Escherichia coli, 20 h; E. coli GN5482, cephalospolinase-producing; 10^6 cells per ml; read-out: MIC
Excerpt: as §1, §2

[4] = test system: St. aureus F-137*; details: Staphylococcus aureus, 20 h, St. aureus F-137, penicillinase-producing; 10^6 cells per ml; read-out: MIC
Excerpt: as §1
(§3) * Penicillinase-producing bacteria

[5] = test system: Kl. pneumoniae Y-4*; details: Klebsiella pneumoniae, 20 h, Kl. pneumoniae Y-4, penicillinase-producing; 10^6 cells per ml; read-out: MIC
Excerpt: as §1, §3

[6] = test system: E. coli TK-3*; details: Escherichia coli, 20 h, E. coli TK-3, penicillinase-producing; 10^6 cells per ml; read-out: MIC
Excerpt: as §1, §3

[7] = test system: Ps. aeruginosa GN3379*; details: Pseudomonas aeruginosa, 20 h; Ps. aeruginosa GN3379, penicillinase-producing; 10^6 cells per ml; read-out: MIC
Excerpt: as §1, §3

[8] = test system: St. aureus FDA209P; details: Staphylococcus aureus, FDA209P, 20 h, St. aureus FDA209P; 10^6 cells per ml; 37° C., 20 hours; read-out: MIC
Excerpt: as §1

[9] = test system: Pro. mirabilis T-111; details: Proteus mirabilis, 37° C.
Excerpt: as §1

[10] = test system: Ent. cloacae IID977; details: Enterobacter cloacae, IID977, 20 h, Ent. cloacae IID977; 10^6 cells per ml; 37° C., 20 hours; read-out: MIC
Excerpt: as §1

[11] = test system: Pro. vulgaris GN3027; details: Proteus vulgaris, GN3027, 20 h, Pro. vulgaris GN3027; 10^6 cells per ml; 37° C., 20 hours; read-out: MIC
Excerpt: as §1

[12] = test system: E. coli TK-111; details: Escherichia coli, TK111, 20 h, E. coli TK-111; 10^6 cells per ml; 37° C., 20 hours; read-out: MIC
Excerpt: as §1

[13] = test system: Kl. pneumoniae Y-50; details: Klebsiella pneumoniae, Y50, 20 h, 10^6 cells per ml, 37° C., read-out: MIC
Excerpt: as §1

[14] = test system: Kl. pneumoniae Y-41; details: Klebsiella pneumoniae, Y41, 10^6 cells per ml, 37° C., 20 hours, read-out: MIC
Excerpt: as §1

[15] = test system: Pro. morganii T-216; details: Morganella morganii, 37° C.
Excerpt: as §1

[16] = test system: Ps. aeruginosa S-68; details: Pseudomonas aeruginosa, S68; Ps. aeruginosa S-68; 10^6 cells per ml; 37° C., 20 hours; read-out: MIC
Excerpt: as §1

[17] = test system: Ps. aeruginosa IFO3445; details: Pseudomonas aeruginosa; Ps. aeruginosa IFO3445; 10^6 cells per ml; 37° C., 20 hours; read-out: MIC
Excerpt: as §1

[18] = test system: E. coli NIHJ JC-2; details: Escherichia coli, NIHJJC2, 20 h, E. coli NIHJ JC-2; 10^6 cells per ml; 37° C., 20 hours; read-out: MIC
Excerpt: as §1

[19] = test system: Aci. antitratus A-6; details: 20 h, Aci. antitratus A-6; 10^6 cells per ml; 37° C., 20 hours; read-out: MIC
Excerpt: as §1

[20] = T111, 10^6 cells per ml, 20 hours, read-out: MIC
[21] = T216, 10^6 cells per ml, 20 hours, read-out: MIC

| Compound | MIC ([1]; 20 h, read-out: MIC) [µg/mL] | MIC [2] [µg/mL] | MIC [3] [µg/mL] | MIC [4] [µg/mL] | MIC [5] [µg/mL] | MIC [6] [µg/mL] | MIC [7] [µg/mL] | MIC [8] [µg/mL] | MIC [9, 20] [µg/mL] | MIC [10] [µg/mL] | MIC [11] [µg/mL] | MIC [12] [µg/mL] | MIC [13] [µg/mL] | MIC [14] [µg/mL] | MIC [16] [µg/mL] | MIC [17] [µg/mL] | MIC [18] [µg/mL] | MIC [19] [µg/mL] | MIC [15, 21] [µg/mL] | also measured |
| --- | --- | --- | --- | --- | --- | --- | --- | --- | --- | --- | --- | --- | --- | --- | --- | --- | --- | --- | --- | --- |
| CNc1ccc(-c2cc(=O)c(C(=O)O)cn2-c2ccc(O)cc2)cc1C | 0.78 (≈ 2.23 µM) | 0.78 (≈ 2.23 µM) | ≤ 0.05 | 0.39 (≈ 1.11 µM) | 1.56 (≈ 4.45 µM) | 0.39 (≈ 1.11 µM) | 6.25 (≈ 17.8 µM) | 0.39 (≈ 1.11 µM) | 3.13 (≈ 8.93 µM) | 0.78 (≈ 2.23 µM) | 0.39 (≈ 1.11 µM) | 0.1 (≈ 0.285 µM) | 0.39 (≈ 1.11 µM) | 1.56 (≈ 4.45 µM) | 3.13 (≈ 8.93 µM) | 3.13 (≈ 8.93 µM) | 0.39 (≈ 1.11 µM) | 0.78 (≈ 2.23 µM) |  | MIC ([15]; T216, 20 h, 10^6 cells per ml): 1.56 µg/mL (≈ 4.45 µM) |
| Cc1cc(O)ccc1-n1cc(C(=O)O)c(=O)cc1-c1ccc2c(ccn2C)c1 | 0.39 (≈ 1.04 µM) | 0.39 (≈ 1.04 µM) | ≤ 0.05 | ≤ 0.05 | 0.78 (≈ 2.08 µM) | 0.2 (≈ 0.534 µM) | 6.25 (≈ 16.7 µM) | ≤ 0.05 | 0.78 (≈ 2.08 µM) | 0.39 (≈ 1.04 µM) | 0.1 (≈ 0.267 µM) | 0.05 (≈ 0.134 µM) | 0.2 (≈ 0.534 µM) | 0.78 (≈ 2.08 µM) | 3.13 (≈ 8.36 µM) | 3.13 (≈ 8.36 µM) | ≤ 0.05 | ≤ 0.05 | 0.78 (≈ 2.08 µM) |  |
| Cn1ccc2cc(-c3cc(=O)c(C(=O)O)cn3-c3ccc(F)cc3)ccc21 | 0.78 (≈ 2.15 µM) | 0.78 (≈ 2.15 µM) | ≤ 0.05 | 0.39 (≈ 1.08 µM) | 3.13 (≈ 8.64 µM) | 1.56 (≈ 4.31 µM) | 25 (≈ 69 µM) | 0.39 (≈ 1.08 µM) |  | 1.56 (≈ 4.31 µM) | 0.2 (≈ 0.552 µM) | 0.1 (≈ 0.276 µM) | 0.78 (≈ 2.15 µM) | 3.13 (≈ 8.64 µM) | 12.5 (≈ 34.5 µM) | 12.5 (≈ 34.5 µM) | 0.39 (≈ 1.08 µM) | 0.1 (≈ 0.276 µM) | 1.56 (≈ 4.31 µM) | MIC ([9]; T111, 20 h, 10^6 cells per ml): 3.13 µg/mL (≈ 8.64 µM) |
| Cc1cc(O)ccc1-n1cc(C(=O)O)c(=O)cc1-c1ccccc1 |  | 0.2 (≈ 0.622 µM) | ≤ 0.05 | 0.2 (≈ 0.622 µM) | 1.56 (≈ 4.85 µM) | 0.39 (≈ 1.21 µM) | 12.5 (≈ 38.9 µM) | 0.2 (≈ 0.622 µM) | 0.78 (≈ 2.43 µM) | 0.39 (≈ 1.21 µM) | ≤ 0.05 | 0.1 (≈ 0.311 µM) | 0.1 (≈ 0.311 µM) | 0.78 (≈ 2.43 µM) | 3.13 (≈ 9.74 µM) | 6.25 (≈ 19.5 µM) | 0.2 (≈ 0.622 µM) | 0.78 (≈ 2.43 µM) | 0.39 (≈ 1.21 µM) | MIC ([1]; GN918, 20 h): 1.56 µg/mL (≈ 4.85 µM) |
